Source: PubChem BioAssay (NCI)
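Exposure lasted 48 hours, with cells grown in 96-well plates and compounds tested at five concentrations. GI50: concentration for 50% inhibition of growth. Definition used: TGI = concentration required for complete inhibition of growth.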

What was measured:
Experiment in all cases: NCI tumour cell line growth inhibition, 48 h
[1] = tested on: RXF 393 renal
[2] = tested on: K-562 leukemia
[3] = tested on: UACC-62 melanoma
[4] = tested on: OVCAR-3 ovarian
[5] = tested on: OVCAR-5 ovarian
[6] = tested on: MOLT-4 leukemia
[7] = tested on: MDA-MB-231 breast
[8] = tested on: NCI/ADR-RES ovarian
[9] = tested on: SK-MEL-2 melanoma
[10] = tested on: MDA-MB-435

Compound	TGI [1]	TGI [2]	TGI [3]	TGI [4]	TGI [5]	TGI [6]	TGI [7]	TGI [8]	GI50 [2]	TGI [9]	GI50 [6]	GI50 [10]	TGI [10]	GI50 [3]	GI50 [9]	GI50 [4]	GI50 [5]	GI50 [8]	GI50 [1]	GI50 [7]
O=C1C(Cl)=C(OCCCl)C(=O)c2c(O)ccc(O)c21	18.6 µM	1.08 µM	14 µM	10.9 µM	31.6 µM	0.619 µM	10.6 µM	69.1 µM	–	–	–	–	–	–	–	–	–	–	–	–
NS(=O)(=O)c1ccc(/C=C/c2ccc(F)cc2)cc1	46.8 µM	> 100 µM	–	57 µM	> 100 µM	> 100 µM	50.7 µM	> 100 µM	14.9 µM	86.7 µM	12.9 µM	27 µM	> 100 µM	–	–	–	–	–	–	–
CC(=O)OCC1OC(SC2=N/C(=C\c3ccc(Br)s3)C(=O)N2CN2CCOCC2)C(OC(C)=O)C(OC(C)=O)C1OC(C)=O (stereo not drawn)	–	45.7 µM	32.1 µM	–	72.1 µM	52.8 µM	> 100 µM	44 µM	–	–	–	–	> 100 µM	–	–	–	–	–	–	–
Cc1csc(NC23CC4CC(CC(C4)C2)C3)[n+]1C(P(=O)([O-])O)P(=O)(O)O (stereo not drawn)	> 100 µM	> 100 µM	> 100 µM	> 100 µM	> 100 µM	> 100 µM	> 100 µM	> 100 µM	–	–	–	–	> 100 µM	–	–	–	–	–	–	–
CC1(C)CC(O)C(C)(C)[C@@H](O)C1 (stereo partly drawn)	> 100 µM	> 100 µM	> 100 µM	–	> 100 µM	> 100 µM	> 100 µM	> 100 µM	–	> 100 µM	–	–	–	–	–	–	–	–	–	–
CC(=O)Oc1cc2c(cc1OC(C)=O)OCC(c1ccc(C)cc1)C2 (stereo not drawn)	34.6 µM	72.3 µM	21.3 µM	41 µM	79 µM	54.6 µM	–	58.3 µM	–	34.1 µM	–	–	–	–	–	–	–	–	–	–
Cc1cc(C)nc(SC2=C(Nc3ccc(C)c(Cl)c3)C(=O)N(Cc3ccccc3)C2=O)n1	–	–	> 160 µM	> 160 µM	> 160 µM	–	–	> 160 µM	–	> 160 µM	–	> 160 µM	> 160 µM	> 160 µM	> 160 µM	> 160 µM	> 160 µM	> 160 µM	–	–
O=C(N/N=C/C=C/c1ccc([N+](=O)[O-])o1)c1cc2ccccc2cc1O	1.77 µM	9.53 µM	2.77 µM	5.83 µM	10.7 µM	7.3 µM	8.65 µM	7.27 µM	0.632 µM	–	1.18 µM	0.506 µM	2.38 µM	1.03 µM	–	0.562 µM	3.35 µM	1.36 µM	0.412 µM	2.17 µM
CN(C)C(=O)OC1C(=O)N(C)c2ccc(Cl)cc2C2(c3ccccc3)N1C2(Cl)Cl (stereo not drawn)	> 100 µM	> 100 µM	> 100 µM	> 100 µM	> 100 µM	> 100 µM	–	–	–	> 100 µM	–	–	–	–	–	–	–	–	–	–
CO/N=C1\CC(NC(=O)CNC(=O)OC(C)(C)C)c2ccsc21 (stereo not drawn)	> 100 µM	–	> 100 µM	> 100 µM	> 100 µM	> 100 µM	> 100 µM	> 100 µM	–	> 100 µM	–	–	> 100 µM	–	–	–	–	–	–	–
